As usually defined, the melting point is the temperature, or range, at which the solid turns liquid.

Here are results for 22 molecules from patent US7462735B2, “Amino acid diamides in non α position which are useful as adjuvants for administration of biological active agents” (Laboratorios Farmaceuticos Rovi, S.A., priority 2003, dated 2008).

The nature of data set [1]: Intracolonic absorption of bemiparin in the rat, with or without adjuvant (plasma anti-Xa activity). The class given is in vivo. The following applies: for effect on colonic absorption of bemiparin measured by plasma anti-Xa activity: adjuvant given with bemiparin, result in words; for anti-Xa activity/ml in plasma: 30 mg/kg bemiparin (+ 30 mg/kg adjuvant). An excerpt: The properties of the invention products have been investigated in an experimental model described below that consists of measuring the intracolonic absorption in the rat of a low-molecular-weight heparin, bemiparin, with a mean molecular mass of around 3,500 daltons and an anti-Xa activity of around 100 units/mg.
The activity of all compounds of the examples described above was studied in animals according to the following experimental model:
Evaluate the absorption of the test product when administered by intracolonic route to rats, whether or not in the presence of adjuvants. The plasma concentration is measured by assaying the Factor Xa-inhibition capacity. The rat is used because it is one of the species commonly used in this type of test.
One intracolonic administration.
25% (v/v) propylene glycol in bidistilled water. After dissolving the test product along with the adjuvant if applicable, adjust the pH to approximately 7.4 with NaOH.
The animals will be in fasted state for approximately 18 h with free access to water
The animals will be randomized to the various experimental groups, with one remaining animal as a reserve per group:
On the day of the test, the treatments will be administered by intracolonic route, following anaesthesia with ketamine. Administration will be done using a catheter of approximately 8 cm, connected to a 1-ml syringe. The catheter will be introduced in its entirety into the colon through the anus and the test product will be administered slowly into the colon.
Following the administration of the test product, within the times established in the table, a citrated blood sample (3.8% at a ratio of 1:9) will be drawn by intracardiac puncture under anaesthesia with ketamine.
Blood centrifugation: 3000 rpm, 10 minutes, 4° C. Plasma freezing (−20±5° C.) until determining the anti-Factor Xa activity.
A control group that will receive no treatment will be included, simply that one blood sample will be drawn per animal under the same conditions as the treatment group, with considered to be the baseline value of anti-Xa activity.
The anti-Xa activity will be assayed by the chromogenic method (anti-FXa activity assay kit).
The mean, the standard deviation […] and the standard error of the mean of each experimental group will be calculated for each parameter. If considered adequate, the values obtained in the different experimental groups will be compared by a statistical analysis.

For another data set, the system named is Factor Xa. Nature of the data set: Anti-Xa activity of the heparin material (units/mg). Type of data set: biochemical. The following applies: specific activity of the heparin material.

`O=C(O)CCCNC(=O)c1ccc(NC(=O)c2ccccc2O)cc1` [Example 1, 4-[4-(hydroxybenzoylamino)benzoylamino]butanoic acid] displayed a melting point of 211 to 213 °C. In data set [1], the “effect on colonic absorption of bemiparin measured by plasma anti-Xa activity” value (“effect on colonic absorption” for short) is listed as “no effect”.
In the same order, the values of `O=C(O)CCCCCNC(=O)c1ccc(NC(=O)c2ccccc2O)cc1` [Example 2, 6-[4-(2-hydroxybenzoylamino)benzoylamino]hexanoic acid] are 201 to 203 °C and “no effect”.
In the same order, the values of `O=C(O)CCCNC(=O)c1cccc(NC(=O)c2ccccc2O)c1` [Example 3, 4-[3-(2-hydroxybenzoylamino)benzoylamino]butanoic acid] are 172 to 174 °C and “no effect”.
As to `O=C(O)CCCNC(=O)c1ccccc1NC(=O)c1ccccc1O` [Example 4, 4-[2-(2-hydroxybenzoylamino)benzoylamino]butanoic acid], the melting point lay within 173 to 174 °C. Moreover, in data set [1], the “effect on colonic absorption” value is listed as “strong increase”.
`O=C(O)CCCCNC(=O)c1ccccc1NC(=O)c1ccccc1O` [Example 5, 5-[2-(2-hydroxybenzoylamino)benzoylamino]pentanoic acid]: the melting point was in the range of 168 to 170 °C.
Take `O=C(O)CCCCCCCNC(=O)c1ccccc1NC(=O)c1ccccc1O` [Example 6, 8-[2-(2-hydroxybenzoylamino)benzoylamino]octanoic acid]: the melting point lay within 124 to 125 °C.
Same read-out and setting: in the case of `O=C(O)CCCCCNC(=O)c1ccccc1NC(=O)c1ccccc1O` [Example 7, 6-[2-(2-hydroxybenzoylamino)benzoylamino]hexanoic acid] it was 165 to 167 °C.
Same read-out and setting: the same measure for `O=C(O)CCCNC(=O)c1ccccc1NC(=O)c1ccccc1[N+](=O)[O-]` [Example 8, 4-[2-(2-nitrobenzoylamino)benzoylamino]butanoic acid]: 142 to 144 °C.
Still for that read-out and setting: in the case of `O=C(O)CCNC(=O)c1ccccc1NC(=O)c1ccccc1O` [Example 9, 3-[2-(2-hydroxybenzoylamino)benzoylamino]propanoic acid] it was 200 to 202 °C.
On to `O=C(O)CCCNC(=O)c1ccccc1NC(=O)c1ccc([N+](=O)[O-])cc1O` [Example 11, 4-[2-(2-hydroxy-4-nitrobenzoylamino)benzoylamino]butanoic acid], for which the melting point lay within 209 to 211 °C. Besides, the “effect on colonic absorption” value in data set [1] is recorded as “strong increase”.
For the molecule `O=C(O)CCCNC(=O)c1ccccc1NC(=O)c1cc([N+](=O)[O-])ccc1O` [Example 12, 4-[2-(2-hydroxy-5-nitrobenzoylamino)benzoylamino]butanoic acid], the melting point lay within 239 to 241 °C.
Same read-out and setting: in the case of `COc1ccc(C(=O)Nc2ccccc2C(=O)NCCCC(=O)O)c(O)c1` [Example 13, 4-[2-(2-hydroxy-4-methoxybenzoylamino)benzoylamino]butanoic acid] it was 201 to 203 °C.
Same read-out and setting: in the case of `COc1ccc(O)c(C(=O)Nc2ccccc2C(=O)NCCCC(=O)O)c1` [Example 14, 4-[2-(2-hydroxy-5-methoxybenzoylamino)benzoylamino]butanoic acid] it was 191 to 193 °C.
Same read-out and setting: in the case of `O=C(O)CCCNC(=O)c1ccccc1NC(=O)c1ccc([N+](=O)[O-])cc1` [Example 15, 4-[2-(4-nitrobenzoylamino)benzoylamino]butanoic acid] it was 206 to 208 °C.
`COc1ccc(C(=O)Nc2ccccc2C(=O)NCCCC(=O)O)cc1` [Example 16, 4-[2-(4-methoxybenzoilamino)benzoilamino]butanoic acid] displayed a melting point of 172 to 174 °C.
The molecule `O=C(O)CCCNC(=O)c1ccccc1NC(=O)c1ccc(Cl)cc1` [Example 17, 4-[2-(4-chlorobenzoylamino)benzoylamino]butanoic acid] came in with a melting point of 182 to 184 °C. Moreover, in data set [1], the “effect on colonic absorption” value is “strong increase”.
As to `O=C(O)CCCNC(=O)c1ccccc1NC(=O)c1ccc(Cl)cc1O` [Example 18, 4-[2-(4-chloro-2-hydroxybenzoylamino)benzoylamino]butanoic acid], the melting point lay within 205 to 206 °C.
In turn, `O=C(O)CCCNC(=O)c1ccccc1NC(=O)c1cc(Cl)ccc1O` [Example 19, 4-[2-(5-chloro-2-hydroxybenzoylamino)benzoylamino]butanoic acid] had a melting point of 222 to 223 °C.
Still for that read-out and setting: the same measure for `O=C(O)CCCNC(=O)c1ccccc1NC(=O)c1ccccc1Cl` [Example 20, 4-[2-(2-chlorobenzoylamino)benzoylamino]butanoic acid]: 110 to 112 °C.
For the molecule `O=C(O)CCCNC(=O)c1ccccc1NC(=O)c1ccccc1Br` [Example 21, 4-[2-(2-bromobenzoylamino)benzoylamino]butanoic acid], the melting point was 117 to 118 °C.
Still for that read-out and setting: in the case of `O=C(O)CCCNC(=O)c1ccccc1NC(=O)c1cccc(Cl)c1` [Example 22, 4-[2-(3-chlorobenzoylamino)benzoylamino]butanoic acid] it was 165 to 166 °C.
In the case of Bemiparin, the “anti-Xa activity/ml in plasma” value is reported as 0.103 in data set [1] (0.5 h post-administration), 0.222 in data set [1] (2 h post-administration) and 0.345 in data set [1] (4 h post-administration). In the data set on Factor Xa, the anti-Xa activity result was “around 100 units/mg”.
